# Laboratory results as given in ChEMBL document CHEMBL1201862, “PubChem BioAssay data set” (2004).
# Calls of active or inactive are those of the source.
# What was measured:
# Large T antigen = Large T antigen (Simian virus 40, UniProt P03070); assay type: functional, Betapolyomavirus macacae;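 also: Confirmatory-stage PubChem screen for compounds that inhibit SV40 T antigen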
# [1] = molecular target: DNA dC->dU-editing enzyme APOBEC-3A (Homo sapiens, UniProt P31941); experiment: Dose Response confirmation of small molecule APOBEC3A DNA Deaminase Inhibitors via a fluorescence-based single-stranded DNA deaminase assay. [Related pubchem assays (depositor defined):AID493011, AID493024]; assay type: functional
# Chain of DNA dC->dU-editing enzyme APOBEC-3A (P31941 whole entry): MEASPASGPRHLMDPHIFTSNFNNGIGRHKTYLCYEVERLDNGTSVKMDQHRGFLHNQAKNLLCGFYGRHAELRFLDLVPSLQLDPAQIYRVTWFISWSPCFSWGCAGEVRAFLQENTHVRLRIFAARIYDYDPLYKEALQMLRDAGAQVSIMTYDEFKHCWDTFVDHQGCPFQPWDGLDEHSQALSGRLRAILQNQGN
# [2] = molecular target: DNA dC->dU-editing enzyme APOBEC-3G (Homo sapiens, UniProt Q9HC16); assay type: functional;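 also: Dose-response counterscreen measuring inhibition of APOBEC3G DNA deaminase activity, run while confirming APOBEC3A inhibitors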
# Chain of DNA dC->dU-editing enzyme APOBEC-3G (Q9HC16 whole entry): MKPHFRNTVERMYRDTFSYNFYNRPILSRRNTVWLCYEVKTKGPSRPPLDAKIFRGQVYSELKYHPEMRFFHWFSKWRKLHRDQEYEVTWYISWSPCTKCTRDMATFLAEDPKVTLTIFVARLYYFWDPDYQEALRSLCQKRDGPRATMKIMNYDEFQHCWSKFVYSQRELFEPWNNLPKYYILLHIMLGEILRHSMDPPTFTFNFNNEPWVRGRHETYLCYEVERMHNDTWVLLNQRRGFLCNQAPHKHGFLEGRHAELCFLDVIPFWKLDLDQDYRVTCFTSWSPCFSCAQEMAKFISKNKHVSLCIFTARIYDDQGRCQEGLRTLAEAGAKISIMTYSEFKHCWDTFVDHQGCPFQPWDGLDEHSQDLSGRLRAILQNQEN
# Cytochrome P450 2D6 = Cytochrome P450 2D6 (Homo sapiens, UniProt P10635);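 also: CYP2D6 member of a cytochrome P450 panel assay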
# Chain of Cytochrome P450 2D6 (P10635 whole entry): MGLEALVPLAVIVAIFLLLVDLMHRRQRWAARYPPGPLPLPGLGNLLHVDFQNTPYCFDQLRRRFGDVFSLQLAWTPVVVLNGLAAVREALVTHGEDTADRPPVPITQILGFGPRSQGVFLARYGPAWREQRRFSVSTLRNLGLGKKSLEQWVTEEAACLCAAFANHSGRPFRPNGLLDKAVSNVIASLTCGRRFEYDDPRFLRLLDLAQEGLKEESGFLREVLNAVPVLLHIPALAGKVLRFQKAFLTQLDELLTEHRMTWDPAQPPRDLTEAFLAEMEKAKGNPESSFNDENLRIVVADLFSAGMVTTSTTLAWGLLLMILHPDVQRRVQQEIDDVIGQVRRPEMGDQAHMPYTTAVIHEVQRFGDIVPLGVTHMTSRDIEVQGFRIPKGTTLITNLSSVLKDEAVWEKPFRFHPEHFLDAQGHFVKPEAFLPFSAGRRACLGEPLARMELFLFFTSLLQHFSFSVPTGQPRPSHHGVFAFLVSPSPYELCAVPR
# [3] = Trypanosoma cruzi growth suppression in host cells – NIH3T3 host cells, beta-gal luminescence, confirmation (AID 2044); assay type: functional, cell-based;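 also: intracellular parasites grown in NIH/3T3 mouse fibroblasts as host cells; luminescent beta-galactosidase reporter signal from transgenic T. cruzi replicating inside host cells; inhibitors lower the luminescence signal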
# [4] = MIN6 cell viability loss – mouse insulinoma, cytotoxicity control, dose response (AID 2122); assay type: functional;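 also: confirmatory high-throughput counterscreen run to flag cytotoxic compounds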
# [5] = decrease of insulin promoter-GFP reporter – imaging, high-content screening, mouse beta cells (AID 1628); assay type: functional; conditions: MIN6
# [6] = NIH3T3 cell viability loss – ATP luminescence, mouse fibroblasts, counter-screen, dose response (AID 2010); assay type: functional, cell-based;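 also: cells exposed to compound for about 90 hours before reading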
# Chain of Large T antigen (P03070 whole entry): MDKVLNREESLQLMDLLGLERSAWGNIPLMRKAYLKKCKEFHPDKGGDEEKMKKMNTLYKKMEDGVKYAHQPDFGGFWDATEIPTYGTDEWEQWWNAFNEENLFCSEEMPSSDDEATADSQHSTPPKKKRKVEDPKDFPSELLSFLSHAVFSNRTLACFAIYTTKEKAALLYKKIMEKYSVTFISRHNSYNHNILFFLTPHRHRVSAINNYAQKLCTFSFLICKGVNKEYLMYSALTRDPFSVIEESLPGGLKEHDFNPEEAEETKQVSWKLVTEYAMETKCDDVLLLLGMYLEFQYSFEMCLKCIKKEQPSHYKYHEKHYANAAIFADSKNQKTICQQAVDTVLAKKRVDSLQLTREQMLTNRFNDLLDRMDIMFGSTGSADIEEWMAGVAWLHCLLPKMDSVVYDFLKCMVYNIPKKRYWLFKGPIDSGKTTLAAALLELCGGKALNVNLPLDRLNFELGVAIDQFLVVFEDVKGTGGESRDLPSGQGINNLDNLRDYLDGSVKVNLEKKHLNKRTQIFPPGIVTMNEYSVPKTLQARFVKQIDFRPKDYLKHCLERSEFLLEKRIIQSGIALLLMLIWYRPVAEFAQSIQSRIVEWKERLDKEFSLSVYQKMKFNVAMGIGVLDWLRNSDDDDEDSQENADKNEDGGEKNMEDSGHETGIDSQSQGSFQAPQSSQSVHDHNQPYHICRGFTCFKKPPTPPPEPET
SMILES,IC50 (Large T antigen),IC50 [4],IC50 [5],also measured
COc1ccc(NCN2C(=O)C3C4C=CC(C4)C3C2=O)cc1 (stereo unspecified),23.2 µM (active),–,–,–
CCn1c(C)nc2cc(S(=O)(=O)Nc3ccc(C)cc3)ccc21,–,–,–,IC50 [1]: 4.42 µM (active); IC50 [2]: 4.4 µM (active)
Cc1ccc(NC(=O)CSc2nnc(-c3ccncc3)o2)cc1,–,–,–,AC50 (Cytochrome P450 2D6): inconclusive
CCC(C)C(=O)Nc1nc(C)c(-c2csc(Nc3ccc(Cl)cc3)n2)s1 (stereo unspecified),–,3.05 µM (active),2.48 µM (active),EC50 [3]: 1.75 µM (active); EC50 [6]: > 60 µM (not active)
CC(=O)Nc1ccc(S(=O)(=O)Nc2nc3ccccc3nc2Nc2ccc(O)cc2)cc1,9.57 µM (active),–,–,–
C=CCC(C#Cc1ccccc1)[N+](C)(C)CC=C (stereo unspecified),–,10.7 µM (inactive),8.7 µM (active),–
